Data reported in patent US11236059B2, “Targeted cytotoxic ratjadone derivatives and conjugates thereof” (HELMHOLTZ-ZENTRUM FUER INFEKTIONSFORSCHUNG GMBH, priority 2017, dated 2022).

Key:
CRM1 = molecular target: T1, CRM1 (Homo sapiens, UniProt O14980); assay: Monitoring export inhibitory activity (translocation biosensor, HeLaRevBio cells); format: cell-based
T1 construct: HeLa cells stably expressing a fluorescent translocation biosensor (HeLaRevBio); endogenous in cells; host or cells: HeLa (HeLaRevBio in A7; HeLa in A8)
T1 sequence (O14980 whole entry): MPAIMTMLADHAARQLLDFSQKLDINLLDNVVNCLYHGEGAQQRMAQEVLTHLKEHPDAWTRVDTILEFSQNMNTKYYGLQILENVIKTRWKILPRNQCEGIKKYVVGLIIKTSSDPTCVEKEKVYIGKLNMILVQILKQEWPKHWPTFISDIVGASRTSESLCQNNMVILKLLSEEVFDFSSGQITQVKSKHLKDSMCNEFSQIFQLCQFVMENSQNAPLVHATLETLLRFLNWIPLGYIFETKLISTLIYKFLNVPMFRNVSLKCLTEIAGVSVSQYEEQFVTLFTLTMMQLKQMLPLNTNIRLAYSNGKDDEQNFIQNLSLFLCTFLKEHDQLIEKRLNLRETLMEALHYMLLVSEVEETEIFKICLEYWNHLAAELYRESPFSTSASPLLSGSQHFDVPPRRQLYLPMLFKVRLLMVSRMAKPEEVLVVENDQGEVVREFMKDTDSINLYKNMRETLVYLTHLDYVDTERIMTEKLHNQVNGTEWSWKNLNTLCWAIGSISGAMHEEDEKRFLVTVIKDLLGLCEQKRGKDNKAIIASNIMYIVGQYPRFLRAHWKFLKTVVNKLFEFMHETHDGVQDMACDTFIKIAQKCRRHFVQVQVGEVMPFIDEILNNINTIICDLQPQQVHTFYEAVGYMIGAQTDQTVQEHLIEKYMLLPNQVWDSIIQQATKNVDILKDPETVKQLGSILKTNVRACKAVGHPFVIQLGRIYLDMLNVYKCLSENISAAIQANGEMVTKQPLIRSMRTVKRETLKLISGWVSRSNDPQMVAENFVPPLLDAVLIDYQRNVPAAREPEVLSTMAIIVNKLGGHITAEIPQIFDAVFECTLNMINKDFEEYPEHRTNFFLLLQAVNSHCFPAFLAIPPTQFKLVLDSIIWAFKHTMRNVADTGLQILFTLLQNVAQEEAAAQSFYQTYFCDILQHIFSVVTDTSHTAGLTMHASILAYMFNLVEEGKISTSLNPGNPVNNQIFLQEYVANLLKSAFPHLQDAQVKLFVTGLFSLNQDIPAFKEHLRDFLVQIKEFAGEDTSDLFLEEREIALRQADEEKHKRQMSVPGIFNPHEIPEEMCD
In short: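 HeLa cells stably expressing an NLS-GST-GFP-RevNES shuttle biosensor were treated with compound for 1 h, then fixed and Hoechst-stained. GFP intensity in nuclear and cytoplasmic regions was quantified by high-content imaging, and the inner-minus-outer mean intensity difference was the readout. IC50 came from four-parameter logistic fit; single-point testing used 125 nM final.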

[1] = molecular target: T2, nuclear export receptor Crm1 (Homo sapiens, UniProt O14980); assay: Pull-down with ratjadone-biotin, LC-MS proteomic target identification; format: binding; conditions: HeLa cells, 0.1 μg/ml, 5h; streptavidin sepharose; 79 proteins identified
T2 construct: HeLa cells stably expressing a fluorescent translocation biosensor (HeLaRevBio); endogenous in cells; host or cells: HeLa (HeLaRevBio in A7; HeLa in A8)
T2 sequence (O14980 whole entry): as above
Protocol: Binding of Ratjadone to the nuclear export receptor Crm1 was shown in a chemical pull down. HeLa cells were treated with ratjadone-biotin, ratjadone or both at 0.1 μg/ml final concentration for 5h. Cells were detached by scraping, washed twice in PBS and lysed in MPER-buffer (Thermo Fisher, Waltham, USA) supplemented with complete protease inhibitor (Roche, Mannheim, Germany). After 5 min incubation on ice the lysate was centrifuged (20 min, 13000 rpm, 4° C.) and the supernatant was incubated with streptavidin sepharose high performance (GE healthcare, Freiburg, Germany) overnight at 4° C. The next day beads were washed twice with PBS and resuspended in elution buffer (Roth) and heated to 95° C. for 10 min. 5% were tested on WesternBlot with a biotin-specific antibody (see FIG. 11). The eluate was given to the proteomics platform (J. Wissing) for identification of proteins.

C/C=C/[C@@H]1O[C@H]([C@H](/C=C/C=C(\C)C[C@@H](C)/C=C(C)\C=C\[C@H]2CC=CC(=O)O2)NC(=O)OCCc2cn(CCOCCOCCOCCNC(=O)CCCC[C@@H]3SC[C@@H]4NC(=O)N[C@@H]43)nn2)C[C@@H](O)[C@@H]1C [Biotin-PEG3-16S-Aminoratjadone, 2-(1-(13-oxo-17-((3aS,4S,6aR)-2-oxohexahydro-1H-thieno[3,4-d]imidazol-4-yl)-3,6,9-trioxa-12-azaheptadecyl)-1H-1,2,3-triazol-4-yl)ethyl ((1S,2E,4E,7R,8Z,10E)-1-((2S,4R,5S,6S)-4-hydroxy-5-methyl-6-((E)-prop-1-en-1-yl)tetrahydro-2H-pyran-2-yl)-5,7,9-trimethyl-11-((R)-6-oxo-3,6-dihydro-2H-pyran-2-yl)undeca-2,4,8,10-tetraen-1-yl)carbamate]
IC50 (CRM1): 152 nM | proteins identified in the pull-down eluate [1]: CRM1 having the highest area
